Experimental data as given in US20200129499A1, “COMBINATION OF TASQUINIMOD OR A PHARMACEUTICALLY ACCEPTABLE SALT THEREOF AND A PD-1 AND/OR PD-L1 INHIBITOR, FOR USE AS A MEDICAMENT” (ACTIVE BIOTECH AB, priority 2015, published 2020).
Entries after “also recorded” stand apart in the source; their conditions may differ.

How the values were obtained:
Type in all cases: in vivo, mouse
MBT-2 tumors = assay: Subcutaneous MBT-2 tumor model, early or established tumors (Examples 3 and 4)
Protocol: (§1) FIG. 4: Treatment with tasquinimod had no effect on established MBT-2 tumor growth and induced an alteration in the profile of PD-1/PD-L1 axis. (A) Growth curves and (B) tumor weight of MBT-2 tumors treated with tasquinimod at 30 mg/kg (oral gavage, twice daily) after randomization at day 11 post tumor-cell inoculation (n=12). Mice were sacrificed. Tumors were harvested, digested and then subjected to surface staining. (C) PD-L1 expression on myeloid cells treated with vehicle (control) or tasquinimod 30 mg/kg at day 15. (D) Quantitative data of the Median Fluorescence Intensity of PD-L1 gated on infiltrating myeloid cells CD1 1b+ (*, P<0.05; Mann-Whitney test, n=5 mice per group).
FIG. 5: 106 MBT-2 cells were injected subcutaneously in C3H/HeNRj mice. Animals were treated with Anti-PD-L1 or its isotype (IgG2B) at the dose of 200 μg by intraperitoneal injection. Treatment started at (A) day 1 (Student test; left panel: *, P=0.0223), or (B) day 11 post tumor cell inoculation. […]
MBT-2 cells (1×106) were injected subcutaneously into the flanks of mice and resulting tumors were allowed to grow for 21 days. Tumors were measured by caliper and tumor volume (mm3) was calculated using the formula=(Width) 2×Length 12. […]

PD-L1 in CD1 1b+ cells = assay: FACS analysis of PD-L1 on tumor CD11b+ myeloid cells
Protocol: FIG. 3: Median Fluorescence Intensity (MFI) of PD-L1 in CD1 1b+ cells derived from mice bearing tumors treated with tasquinimod. The mice were treated with 30 mg/kg p.o. of tasquinimod twice daily from day 10 after tumor inoculation. Tasquinimod treatment was carried out for 7 days. This analysis was done by cytometry.
as §1, with “(C) PD-L1 expression on myeloid cells treated with vehicle (control) or tasquinimod 30 mg/kg at day 15.” left out
Mice were treated as described in Example 1. […] Cells were analyzed by Fortessa X-20 (BD Biosciences).
Single cell suspensions were prepared from tumors by incubating the tumors cross-cut into small pieces in 8 mg/ml Collagenase IV (Life Technologies) and 0.1% DNase (Sigma-Aldrich) for 45 min at 37° C. […] Data were analyzed using FlowJo software (Tree Star Inc.). […] This procedure yielded predominantly CD1 1b+ cells with purity greater than 80% as assessed by FACS analysis.

MBT-2 tumor cells = assay: Survival in orthotopic MBT-2 bladder tumor model; details: tasquinimod 30 mg/kg twice a day 21 days; Anti-PD1 10 mg/kg i.p. twice weekly; control 29 days; FIG. 9
Protocol: FIG. 9: MBT-2 tumor cells were injected orthotopically into female C3H/HeJ mice. Briefly, after a period of 4-hour of water deprivation, mice were anaesthetized using a mix of Ketamine and Xylazine. A catheter (ref: 381212 24G, BD Insyte) was inserted in the bladder through the urethra and 30 μI 0.1 N HCl was injected for 15 seconds, then replaced by 30 μI 0.1 N NaOH for 15 seconds. MBT-2 tumor cells (2×1 06) were instilled into the bladder for 45 minutes. The treatment was initiated at day 3. Tasquinimod was given at the dose of 30 mg/kg by oral gavage twice a day for 21 consecutive days. Anti-PD1 (clone: RMP1-14) or its isotype control (clone 2A3) was injected by intraperitoneal route at the dose of 10 mg/kg twice weekly for two consecutive weeks (at D4, D7, D11 and D14). The survival of MBT-2 tumor-bearing mice treated with anti-PD1, tasquinimod, the combination, or IgG control are shown in FIG. 9 (n=13). Dunnet-Hsu test was used to compare overall survival between groups.

In the case of `COc1cccc2c1c(O)c(C(=O)N(C)c1ccc(C(F)(F)F)cc1)c(=O)n2C` [tasquinimod, 4-hydroxy-5-methoxy-N,1-dimethyl-2-oxo-N-[4-(trifluoromethyl)phenyl]-1,2-dihydroquinoline-3-carboxamide], the “tumor growth (tumor volume, mean±SEM)” value (MBT-2 tumors; established tumors, treatment from day 8, FIG. 6B) was 343±67 mm3, the “tumor growth of established MBT-2 tumors” value (MBT-2 tumors; treatment started at tumor volume 50-100 mm3, tasquinimod 30 mg/kg twice daily, Anti-PD-L1 200 μg i.p.) was “no effect; also recorded: lost its ability to inhibit tumor growth” and the “median fluorescence intensity of PD-L1 expressed on myeloid cells” value (PD-L1 in CD1 1b+ cells; 30 mg/kg p.o. twice daily from day 10 for 7 days, FIG. 3) was “increase”. The “expression of PD-L1 gated on CD1 1b+ cells” value (PD-L1 in CD1 1b+ cells; established MBT-2 tumors, tasquinimod 30 mg/kg, day 15, FIGS. 4C and D) was “increase” and the “median survival of mice” value (MBT-2 tumor cells) was 27 days.
